One data set concerns MDA-MB-435. The experiment in a line: Inhibition of cell migration in human MDA-MB-435 cells incubated for 24 hrs by hematoxylin staining based assay. The data set is classed as functional. As to conditions: MDA-MB-435, 24 h.
Data set [1] in a line: Cytotoxicity against rat Highly aggressively proliferating immortalized Microglia cells assessed as inhibition of cell growth incubated for 24 hrs by CTG luminescence assay. The data set is classed as toxicity, cell-based.
Data set [2] is described as follows: Cytotoxicity against mouse BV-2 cells assessed as inhibition of cell growth incubated for 24 hrs by CTG luminescence assay. Format: toxicity, cell-based.
For a further data set, the system named is HEp-2. Briefly: Cytotoxicity against human HEp-2 cells assessed as cell growth inhibition by measuring effective dose. Format: functional. The note with it: read-out: ED50 (the source's name).
Another data set relates to Jurkat. The experiment in a line: Cytotoxicity against human Jurkat cells assessed as cell growth inhibition by alamar blue assay. Format: functional, cell-based. On the technique in general: Resazurin is reduced to fluorescent resorufin, in cell work by metabolically active cells.
For a further data set, the system named is U-937. The experiment in a line: Cytotoxicity against human U-937 cells assessed as cell growth inhibition by alamar blue assay. Format: functional, cell-based.
In another data set the test system is MCF-10A. Briefly: Cytotoxicity against human MCF-10A cells assessed as cell growth inhibition by alamar blue assay. The data set is classed as functional, cell-based.
The next data set has as its system MDA-MB-231. The experiment in a line: Cytotoxicity against human MDA-MB-231 cells assessed as cell growth inhibition by alamar blue assay. Format: functional, cell-based.
In another data set the test system is MCF7. Briefly: Cytotoxicity against human MCF7 cells assessed as cell growth inhibition by MTT assay. Format: functional, cell-based. On the technique in general: Tetrazolium dyes change colour on reduction, which living cells bring about.
The subject of the next data set is HeLa. The experiment in a line: Cytotoxicity against human HeLa cells assessed as cell growth inhibition by alamar blue assay. Format: functional, cell-based.
The test system of a further data set is MKN-45. Briefly: Cytotoxicity against human MKN-45 cells. Format: functional, cell-based.
The subject of data set [3] is ACHN. Briefly: Cytotoxicity against human ACHN cells. The data set is classed as functional, cell-based.
A short description of data set [4]: Cytotoxicity against human HEK293F cells. Format: toxicity, cell-based.
In another data set the test system is SK-MEL-2. The experiment in a line: Cytotoxicity against human SK-MEL-2 cells assessed as inhibition of cell growth by measuring its effective dose. Format: functional. The note with it: read-out: ED50 (the source's name).
A further data set deals with SK-OV-3. The experiment in a line: Cytotoxicity against human SK-OV-3 cells assessed as inhibition of cell growth by measuring its effective dose. As to conditions: read-out: ED50 (the source's name). The data set is classed as functional.
The test system of another data set is A549. Briefly: Cytotoxicity against human A549 cells assessed as inhibition of cell growth by measuring its effective dose. Format: functional. As to conditions: read-out: ED50 (the source's name).
The test system of another data set is HCT-15. The experiment in a line: Cytotoxicity against human HCT-15 cells assessed as inhibition of cell growth by measuring its effective dose. The data set is classed as functional. As to conditions: read-out: ED50 (the source's name).
The test system of a further data set is XF498. The experiment in a line: Cytotoxicity against human XF498 cells assessed as inhibition of cell growth by measuring its effective dose. Format: functional. The note with it: read-out: ED50 (the source's name).
A further data set concerns KB. Briefly: Cytotoxicity against human KB cells by MTT assay. Format: functional, cell-based.
Data set [5] has as its system K562. The experiment in a line: Cytotoxicity against human K562 cells by MTT assay. The data set is classed as functional, cell-based.
The test system of data set [6] is K562. Briefly: Antiproliferative activity against human K562 cells assessed as reduction in cell viability incubated for 48 hrs by CCK-8 assay. The data set is classed as functional, cell-based. As to conditions: K562, 48 h.
In the next data set the test system is P388. Briefly: Cytotoxicity against mouse P388 cells. The data set is classed as functional, cell-based. The note with it: Mus musculus, P388; read-out: IC50.
Another data set relates to L1210. Briefly: Cytotoxicity against mouse L1210 cells. The data set is classed as functional, cell-based.
Another data set concerns T-24. The experiment in a line: Cytotoxicity against human T24 cells assessed as cell viability. Format: functional.
The test system of data set [7] is ACHN. Briefly: Cytotoxicity against human ACHN cells assessed as cell viability. The data set is classed as functional.

Results on 12 compounds are retold here after ChEMBL document CHEMBL5260828, “Amphiphilic glycoconjugates as potential anti-cancer chemotherapeutics” (Eur J Med Chem, 2018).

As usually defined, the IC50 is the concentration that gives 50% inhibition.

Values after ≈ are worked out from the molar mass of the structure shown.

In turn, `CCCCCCCCCCCCCCCCOCC(COC1O[C@H](CO)[C@@H](O[C@@H]2O[C@H](CO)[C@H](O)[C@H](O)[C@H]2O)[C@H](O)[C@H]1O)OC` (some centres not stated) registered an IC50 in the data set with MDA-MB-435 of 300 nM.
Take `CCCCCCC[C@@H](CC(=O)N[C@H](CO)CC(C)C)OC(=O)C[C@H](CCCCCCC)OC(=O)C[C@H](CCCCCCC)O[C@@H]1O[C@@H](C)[C@H](O)[C@@H](O)[C@H]1O`: the IC50 at 24 h in [1] is 22000 nM; in data set [2], 6900 nM.
`CCCCCCCCCCCC(=O)O[C@@H]1[C@@H](O)[C@@H](OC(=O)/C=C/c2ccccc2)[C@H](O[C@@H]2[C@@H](O[C@@H]3O[C@@H](C)[C@H](O)[C@@H](O)[C@H]3O)[C@@H](OC(=O)C(C)C)[C@H](O[C@@H]3[C@@H](O)[C@H]4OC(=O)CCCCCCCCC[C@@H](CCCCC)O[C@@H]5O[C@H](C)[C@@H](O)[C@H](O)[C@H]5O[C@@H]4O[C@H]3C)O[C@H]2C)O[C@H]1C`: in the data set with HEp-2, the EC50 worked out at 2 µg/mL (≈ 1.46 µM).
Regarding `C/C=C(\C)C(=O)O[C@@H]1[C@@H](O)[C@@H]2O[C@H]3[C@H](O[C@@H](CCCCC)CCCCCCCCCC(=O)OC[C@@H](O2)[C@H]1OC(=O)/C=C/c1ccccc1)O[C@H](C)[C@H](OC(C)=O)[C@@H]3O`, the IC50 in the data set on Jurkat turned out to be 9.7 nM; in the data set with U-937 it was 11.1 nM; with MCF-10A, 30.7 nM; in the data set on MDA-MB-231 it was 16.1 nM; in the data set with MCF7, 33 nM; in the data set on HeLa, 14.9 nM.
In the case of `CCCCCCCC(=O)O[C@H]1[C@H](OC[C@@H](O)[C@@H](O)[C@H](O)CO)O[C@H](COC(=O)CCCCC)[C@@H](OC(=O)CCCCC)[C@@H]1OC(=O)CCCCC`, the IC50 in the data set with MKN-45 turned out to be 7500 nM; in the data set with ACHN [3], 6800 nM; in data set [4], 8900 nM.
With `CCCCCCCCCCCCCCCCOC[C@H](O)COC1[C@@H](O)[C@H](O)[C@@H](O)[C@@H]1O`, the EC50 in the data set on SK-MEL-2, in the data set with SK-OV-3, in the data set with A549, with HCT-15 and with XF498 was 4.3 µg/mL (≈ 9.58 µM) each time.
Consider `C/C=C(\C)[C@H](O)[C@H](C)/C=C/C=C/C/C(C)=C/Cc1nc(OC)c(OC)c(OC2O[C@@H](C)[C@H](O)[C@@H](O)[C@H]2O)c1C` (some centres not stated), for which the IC50 worked out at 4.5 µg/mL (≈ 8.22 µM) in the data set on KB and 2.9 µg/mL (≈ 5.29 µM) in the data set with K562 [5].
Regarding `CCCCCCCCCCN1C[C@H](NC(C)=O)[C@@H](O)[C@H](O)C1=O`, in the data set with K562 [6], the IC50 amounted to 19800 nM.
Consider `CO[C@@H]1[C@H](O[C@@H]2CO[C@@H](O[C@@H]3[C@@H](O)[C@H](O)CO[C@H]3N3C(=O)/C(=C(O)/C=C/C=C/C=C/C=C/C=C(Cl)/C=C(\C)Cl)C(=O)[C@@H]3CC(N)=O)[C@@H](O)[C@@H]2O)O[C@H](C)[C@H]1O` [AURANTOSIDE A], for which the figures for the IC50 in the data set on P388 and in the data set with L1210 were 1.8 µg/mL (≈ 2.2 µM) and 3.4 µg/mL (≈ 4.16 µM), respectively.
The corresponding values for `C\C(Cl)=C/C(Cl)=C/C=C/C=C/C=C/C=C/C(O)=C1\C(=O)[C@H](CC(N)=O)N([C@@H]2OC[C@@H](O)[C@H](O)[C@H]2O[C@@H]2OC[C@@H](O[C@@H]3O[C@H](C)[C@@H](O)[C@@H]3O)[C@@H](O)[C@@H]2O)C1=O` [AURANTOSIDE B] are 3.2 µg/mL (≈ 3.98 µM) and 3.3 µg/mL (≈ 4.11 µM).
With `COc1cccc2c1C(=O)c1c(O)c3c(c(O)c1C2=O)C[C@@](O)(C(=O)CO)C[C@@H]3O[C@H]1C[C@H](N)[C@H](O)[C@H](C)O1` [DOXORUBICIN], the Activity with T-24 is on record as 79%.
With `CC(=O)O[C@H]1C(=O)[C@@]2(C)[C@H]([C@H](OC(=O)c3ccccc3)[C@]3(O)C[C@H](OC(=O)[C@H](O)[C@@H](NC(=O)c4ccccc4)c4ccccc4)C(C)=C1C3(C)C)[C@]1(OC(C)=O)CO[C@@H]1C[C@@H]2O` [PACLITAXEL], the Activity in the data set with ACHN [7] was 65.8%.
